Where a SMILES comes first, the peptide text is derived from it. Bridges are numbered along the chain shown (N, C = ends). [ ]: non-standard residue; d: D form. The star is where a group is joined. X1 = NC[C@@H](CC(=O)*)c1cccc(Cl)c1; Dab = NCC[C@H](N)C(=O)O; Dap = NC[C@H](N)C(=O)O
How the values were obtained:
[1] = in vivo; cited from earlier work
clinical = conditions: human, in vivo, iv, 100 mg
Protocol: (§1) This was a Phase 1, single-center, multiple-dose, open-label PK study in healthy adult male and female subjects. Subjects received three 100 mg doses of SPR206 administered q8h as a 1-h IV infusion. Three consecutive doses were sufficient to achieve steady-state based on a previous Phase 1 study in healthy subjects ([36]). A screening evaluation to determine eligibility for enrollment into the study was performed within 28 days of initial dosing. Subjects who met inclusion and exclusion criteria returned to the study unit 1 day before dosing (Day -1). Subjects who met inclusion and exclusion criteria were confined to the study site from Day -1 (1 day prior to start of dosing) and remained in the study site through completion of all scheduled procedures including collection of the last PK sample and bronchoscopy procedures along with safety evaluations (Day 2). Each subject underwent 1 bronchoscopy with BAL at 2, 3, 4, 6, or 8 h after the start of the third IV infusion. Subjects were required to return for a follow-up visit on Day 7 (+2 days) after discharge from the study site. The maximum duration of participation for each subject was up to 39 days (up to 28 days for Screening, 2 days of confinement, and up to 9 days for follow-up).
Blood samples for determining SPR206 plasma concentrations were collected within 60 min pre-dose (0 h) prior to second and third doses of SPR206 only and at 2, 3, 4, 6, and 8 h after the start of the third dose of SPR206.
Concentrations of SPR206 in plasma were determined by a validated liquid chromatography with tandem mass spectrometry (LC-MS/MS) assay performed at QPS, LLC. For plasma, the assay range was 50 to 50,000 ng/mL. In plasma, intraday precision (% coefficient of variation) ranged from 1.3% to 7.7%, and accuracy (% relative error) ranged from -1.2% to 9.5%. Interday precision ranged from 2.9% to 5.3% and accuracy ranged from 1.6% to 6.0%.
PK analysis of SPR206 plasma concentrations was determined with noncompartmental PK analysis using Phoenix WinNonlin software (version 8.3, Certara Inc.). PK parameters were Tmax, Cmax, Cmin, and AUC0-8.
(§2) Actual BAL samples were collected outside the protocol-specified sampling time windows. Thus, an updated method was utilized where the PK parameters for ELF or AM were calculated from composite concentration profiles of ELF or AM, respectively, based on the 27 subjects in the BAL PK population. Some blood samples were collected outside of the planned sampling windows, and therefore, individual plasma AUC0-8 was calculated first and the mean population plasma AUC0-8 was derived from all individual AUC0-8 values.
(§3) Concentrations of SPR206 were summarized separately for plasma, ELF, and AM by nominal time point using descriptive statistics. The mean concentrations of SPR206 in BAL fluid obtained at the different BAL fluid sampling times (e.g., 2, 3, 4, 6, and 8 h) were used to estimate the AUC0-8 for SPR206 in plasma, ELF, and AM. The concentration at the final sampling time (8 h) also served as the time zero value for determining the AUC0-8 value of each matrix using Phoenix WinNonlin software (version 8.3, Certara Inc.). The ratios of the AUC0-8 of ELF or AM to the AUC0-8 of plasma (total and unbound) were calculated. Plasma protein binding analyses were not conducted as part of this study. The value used for the unbound fraction of SPR206 in plasma was 0.914 (Spero Therapeutics, Inc., data on file). The measured concentrations in ELF and AM represented unbound concentrations, since only unbound plasma fractions are considered to penetrate the lung compartments. Individual plasma concentration-time profile versus time and arithmetic mean concentration (±SD) versus time plots were presented for the concentration-time data.

[2] = Alveolar macrophage (AM) pharmacokinetics of SPR206 from BAL cell pellet; assay type: in vivo, human
Protocol: as §1
(§4) Subjects were assigned to 1 of 5 bronchoscopy sampling times at 2, 3, 4, 6, or 8 (± 10 min) after the third IV infusion of SPR206. Each subject underwent 1 standardized bronchoscopy and BAL on Day 2 at the assigned time. A blood sample to determine plasma concentrations of SPR206 and urea was obtained during the bronchoscopy procedure at each BAL sampling time (approximating the time of collection of a second aspirate of BAL). Detail descriptions of the outpatient bronchoscopy, BAL procedures, and the handling, processing, and storage of samples have been previously described ([58][–][60]).
(§5) The concentrations of SPR206 in BAL and in cell pellets were determined by Keystone Bioanalytical, Inc. using a validated LC-MS/MS method. ELF concentrations were calculated by the urea dilution method ([61], [62]). AM concentrations were determined from cell pellet drug concentrations, cell count in BAL fluid, and macrophage cell volume ([62]). The calibration curves for SPR206 were linear over a range from 2 to 1,000 ng/mL. The inter-assay precision (%CV) and accuracy (%RE) for SPR206 were 2.81% to 15.84% and -4.02% to 1.51%, respectively. The intra-assay precision (%CV) and accuracy (%RE) for SPR206 were 1.43% to 18.59% and -17.44% to 6.28%, respectively.
as §2
as §3, with “Individual plasma concentration-time profile versus time and arithmetic mean concentration (±SD) versus time plots were presented for the concentration-time data.” left out

[3] = Epithelial lining fluid (ELF) pharmacokinetics of SPR206 by bronchoscopy with BAL, urea dilution method; assay type: in vivo, human
Protocol: as §1, §4, §5
The concentration of urea in plasma and BAL fluid supernatants was determined using a validated LC/MS/MS method from Keystone Bioanalytical, Inc. Thirty human plasma and 30 BAL fluid samples were assayed for urea concentrations. A total of 10 samples for both plasma and BAL fluid (33.3%) were selected for testing, and the calculated assay variability was within 20%. The calibration curve for the urea assay in plasma was linear over the range from 100 to 3,000 μg/mL. The inter-assay precision (%CV) and accuracy (%RE) for SPR206 were 1.98% to 3.37% and -8.17% to 4.13%, respectively. The intra-assay precision (%CV) and accuracy (%RE) for SPR206 were 0.56% to 5.60% and -10.21% to 8.54%, respectively. The calibration range of the urea assay for BAL fluid was linear (r^2 > 0.998) over the range of 0.2 to 10 μg/mL. The inter-assay precision (%CV) and accuracy (%RE) for SPR206 were 6.40% to 9.77% and -3.22% to 1.47%, respectively. The intra-assay precision (%CV) and accuracy (%RE) for SPR206 were 0.96% to 12.08% and -11.30% to 9.15%, respectively.
Actual BAL samples were collected outside the protocol-specified sampling time windows. Thus, an updated method was utilized where the PK parameters for ELF or AM were calculated from composite concentration profiles of ELF or AM, respectively, based on the 27 subjects in the BAL PK population. […]

[4] = cited from earlier work
kidney cell = conditions: cited from earlier work
[5] = Safety and tolerability in healthy subjects (Phase 1 BAL study); assay type: in vivo, human
Protocol: as §1
Subjects were continuously monitored during the bronchoscopy. Vital signs (blood pressure, heart rate, and respiratory rate) were recorded prior to the scheduled bronchoscopy time and at 15 min and 1 h following the end of bronchoscopy. Subjects were kept under observation for 2 to 3 h post-bronchoscopy for safety evaluations. Continuous pulse oximetry was conducted from the beginning of preparation of the subject for bronchoscopy until the post-procedure oxygen saturation was at least 93% on room air. Pulse oximetry was extended if a clinically significant increase in heart rate or cardiac rhythm abnormalities were detected. Other safety assessments included physical examinations, clinical laboratory monitoring (hematology, blood chemistry, and urinalysis), 12-lead ECG, and adverse event recording.

[6] = in vivo, cited from earlier work
[7] = human, in vivo, iv; cited from earlier work
[8] = BAL sampling time 2 hours post-dose
[9] = BAL sampling time 2 hours post-dose, unbound fraction 0.914
[10] = BAL sampling time 3 hours post-dose
[11] = BAL sampling time 3 hours post-dose, unbound fraction 0.914
[12] = BAL sampling time 4 hours post-dose
[13] = BAL sampling time 4 hours post-dose, unbound fraction 0.914
[14] = BAL sampling time 6 hours post-dose
[15] = BAL sampling time 6 hours post-dose, unbound fraction 0.914
[16] = BAL sampling time 8 hours post-dose
[17] = BAL sampling time 8 hours post-dose, unbound fraction 0.914
[18] = both sexes, human, in vivo, iv, 100 mg

Compound: CC(C)C[C@@H]1NC(=O)[C@@H](Cc2ccccc2)NC(=O)[C@H](CCN)NC(=O)[C@@H](NC(=O)[C@H](CN)NC(=O)[C@@H](NC(=O)C[C@H](CN)c2cccc(Cl)c2)[C@@H](C)O)CCNC(=O)[C@H]([C@@H](C)O)NC(=O)[C@H](CCN)NC(=O)[C@H](CCN)NC1=O [SPR206] (X1-T[Dap][Dab][Dab][dF]L[Dab][Dab]T; lactam 3-C (inferred))
- Exposure in the kidney [1]: lower exposure in the kidney than polymyxin B
- Vd (clinical; both sexes): 19.8 L
- half-life (clinical; both sexes): 3.6 h
- AUC(0-t) (clinical; both sexes, AUC0-8, geometric mean (CV%)): 19800 ng·h/mL
- Cmax (clinical; both sexes, arithmetic mean (SD)): 4400 ng/mL
- Cmax (clinical; both sexes, geometric mean (CV%)): 4300 ng/mL
- Tmax (clinical; both sexes, Median time to peak plasma concentrations (Tmax)): 2 h
- Tmax (clinical; both sexes, Tmax range): 1.8 to 2.9 h
- Tmax (clinical; both sexes, Tmax, arithmetic mean (SD)): 2.1 h
- Tmax (clinical; both sexes, Tmax, geometric mean (CV%)): 2.1 h
- AUC0-8, geometric mean (CV%) (clinical; both): 19817.9 (17.9) h*ng/mL
- Cmax, geometric mean (CV%) (clinical; both): 4333.4 (17.2) ng/mL
- t1/2, geometric mean (CV%) (clinical; both): 3.6 (13.5) hours
- Vz, geometric mean (CV%) (clinical): 19502.1 (18.1) mL
- Ratio AM to total plasma concentration, arithmetic mean ± SD [2, 8]: 0.206 ± 0.114
- Ratio AM to unbound plasma concentration, arithmetic mean ± SD [2, 9]: 0.226 ± 0.124
- Ratio AM to total plasma concentration, arithmetic mean ± SD [2, 10]: 0.184 ± 0.065
- Ratio AM to unbound plasma concentration, arithmetic mean ± SD [2, 11]: 0.201 ± 0.071
- Ratio AM to total plasma concentration, arithmetic mean ± SD [2, 12]: 0.223 ± 0.089
- Ratio AM to unbound plasma concentration, arithmetic mean ± SD [2, 13]: 0.244 ± 0.097
- Ratio AM to total plasma concentration, arithmetic mean ± SD [2, 14]: 0.519 ± 0.223
- Ratio AM to unbound plasma concentration, arithmetic mean ± SD [2, 15]: 0.568 ± 0.244
- Ratio AM to total plasma concentration, arithmetic mean ± SD [2, 16]: 0.503 ± 0.192
- Ratio AM to unbound plasma concentration, arithmetic mean ± SD [2, 17]: 0.550 ± 0.210
- Ratio of AUC0-8 of AM to AUC0-8 of total plasma ([2]; after third 100 mg IV dose, plasma n = 34, AM n = 27): 0.300
- Ratio of AUC0-8 of AM to AUC0-8 of unbound plasma ([2]; after third 100 mg IV dose, plasma n = 34, AM n = 27, unbound fraction 0.914): 0.328
- AUC(0-t) [2, 18]: 6030 ng·h/mL
- Cmax [2, 18]: 861 ng/mL
- Tmax [2, 18]: 6.4 h
- Ratio ELF to total plasma concentration, arithmetic mean ± SD [3, 8]: 0.183 ± 0.032
- Ratio ELF to unbound plasma concentration, arithmetic mean ± SD [3, 9]: 0.200 ± 0.035
- Ratio ELF to total plasma concentration, arithmetic mean ± SD [3, 10]: 0.199 ± 0.066
- Ratio ELF to unbound plasma concentration, arithmetic mean ± SD [3, 11]: 0.218 ± 0.072
- Ratio ELF to total plasma concentration, arithmetic mean ± SD [3, 12]: 0.190 ± 0.067
- Ratio ELF to unbound plasma concentration, arithmetic mean ± SD [3, 13]: 0.208 ± 0.074
- Ratio ELF to total plasma concentration, arithmetic mean ± SD [3, 14]: 0.428 ± 0.176
- Ratio ELF to unbound plasma concentration, arithmetic mean ± SD [3, 15]: 0.469 ± 0.192
- Ratio ELF to total plasma concentration, arithmetic mean ± SD [3, 16]: 0.347 ± 0.138
- Ratio ELF to unbound plasma concentration, arithmetic mean ± SD [3, 17]: 0.380 ± 0.151
- Ratio of AUC0-8 of ELF to AUC0-8 of total plasma ([3]; after third 100 mg IV dose, plasma n = 34, ELF n = 27): 0.242
- Ratio of AUC0-8 of ELF to AUC0-8 of unbound plasma ([3]; after third 100 mg IV dose, plasma n = 34, ELF n = 27, unbound fraction 0.914): 0.264
- AUC(0-t) [3, 18]: 4860 ng·h/mL
- Cmax [3, 18]: 736 ng/mL
- Tmax [3, 18]: 2.2 h
- Unbound fraction in plasma [4]: 0.914
- Kidney cell cytotoxicity (kidney cell): reduced kidney cell cytotoxicity
- Deaths, serious AEs, AEs leading to discontinuation ([5]; 100 mg IV q8h x 3 doses): No deaths, serious AEs, or AEs leading to study drug discontinuation or study discontinuation were reported
- TEAEs reported as mild in severity (of 40 reported TEAEs) ([5]; human, in vivo, iv): 85.0%
- Clinical laboratory parameters including blood urea nitrogen, serum creatinine, estimated creatinine clearance ([5]; human, in vivo, iv, 100 mg): No clinically significant abnormalities

Compound: colistin
- Lung concentrations ([6]; iv): undetectable
- Lung concentrations relative to MIC50 for P. aeruginosa [6]: below the MIC50 for P. aeruginosa
- Levels in BAL fluid [7]: undetectable levels
